Measured values reported in patent US10663548B2, “System and method for magnetic resonance imaging” (The University of Western Ontario, priority 2008, dated 2020).
Read-outs that look alike come from different tables or passages of the source.

Tests used:
[1] = test system: albumin; assay: Relaxivity in the presence and absence of albumin at 1.5 T; type: physicochemical
Method: To characterize the efficacy of an activatable contrast agent, the relaxivity enhancement ratio, that is the ratio of the activated relaxivity to the inactivated relaxivity can be defined. For Vasovist at a magnetic field strength equal to 1.5 T, the relaxivities in the presence and absence of albumin are 19 s^−1 mM^−1 and 5.2 s^−1 mM^−1 respectively, resulting in a relaxivity enhancement ratio of 3.7. From FIG. 3 it can be seen that the Vasovist relaxivity enhancement ratio peaks in the vicinity of a magnetic filed strength equal to 0.5 T, and falls quickly for magnetic field strengths above that value.
Defining R1′ and r1′ as the partial derivatives of R1 and r1 with respect to the polarizing magnetic field B0 results in R1′=R1Unenhanced′+r1′*[CA]. Applying the approximation that R1′Unenhanced≈0 for magnetic fields above 1.0 T, results in the expression R1′≈r1′*[CA]. […] For Vasovist, the relaxivity slope enhancement ratio (ratio of activated r1′ to inactivated r1′) is 90 at a magnetic field strength equal to 1.5 T. This represents a 25-fold increase over the absolute relaxivity enhancement ratio of 3.7 mentioned above. The high specificity of DREMR enhancement is not specific to Vasovist but applies to any T1 contrast agent that undergoes binding to large molecules (15).

[2] = molecular target: T1, rabbit serum albumin (Oryctolagus cuniculus, UniProt P49065); assay: MRI phantom imaging (T1 weighted and DREMR) with and without rabbit serum albumin; details: 1.5 T, 21° C.
T1 construct: purchased Sigma-Aldrich batch 104K7560 (catalogue number not given)
Method: The particular choice of agent/protein pair was based by the availability of the contrast agent and its well-documented relaxivity mechanisms, rather than any specific clinical or research interest in albumin.
An MRI phantom (see FIG. 5a) was constructed that held two columns of six rows of glass tubes; each tube 3 cm in length with a 0.4 mL capacity. The sample tubes in the left column were filled with 0.01 M phosphate buffered saline (PBS) (NaCl 0.138M, KCl 0.0027M, pH 7.4 at 25° C.). The right column of sample tubes held a solute of rabbit serum albumin (Sigma-Aldrich, batch 104K7560, agarose gel electrophoresis) in PBS. The albumin, purchased as a lyophilized powder, was dissolved in PBS, at a 4.5% weight to volume ratio resulting in ˜0.67 mM concentration. Vasovist (0.25 mmol/mL) was added in equal concentration to both columns to achieve sample concentrations of 0, 10, 20, 40, 80 and 160 μM as a function of descending rows.
Imaging was performed on a Sigma LX 1.5 T clinical MRI machine (General Electric Healthcare), equipped with an actively shielded electromagnetic ΔB insert (19). […]

[3] = molecular target: human serum albumin (Homo sapiens, UniProt P02768); details: cited from earlier work; for increase of relaxivity of the bound form: in the presence of human serum albumin
[4] = test system: albumin; details: 1.5 T, cited from earlier work
[5] = molecular target: T2, myeloperoxidase (Homo sapiens, UniProt P05164); details: in the presence of active myeloperoxidase; cited from earlier work
T2 sequence (P05164 49-745): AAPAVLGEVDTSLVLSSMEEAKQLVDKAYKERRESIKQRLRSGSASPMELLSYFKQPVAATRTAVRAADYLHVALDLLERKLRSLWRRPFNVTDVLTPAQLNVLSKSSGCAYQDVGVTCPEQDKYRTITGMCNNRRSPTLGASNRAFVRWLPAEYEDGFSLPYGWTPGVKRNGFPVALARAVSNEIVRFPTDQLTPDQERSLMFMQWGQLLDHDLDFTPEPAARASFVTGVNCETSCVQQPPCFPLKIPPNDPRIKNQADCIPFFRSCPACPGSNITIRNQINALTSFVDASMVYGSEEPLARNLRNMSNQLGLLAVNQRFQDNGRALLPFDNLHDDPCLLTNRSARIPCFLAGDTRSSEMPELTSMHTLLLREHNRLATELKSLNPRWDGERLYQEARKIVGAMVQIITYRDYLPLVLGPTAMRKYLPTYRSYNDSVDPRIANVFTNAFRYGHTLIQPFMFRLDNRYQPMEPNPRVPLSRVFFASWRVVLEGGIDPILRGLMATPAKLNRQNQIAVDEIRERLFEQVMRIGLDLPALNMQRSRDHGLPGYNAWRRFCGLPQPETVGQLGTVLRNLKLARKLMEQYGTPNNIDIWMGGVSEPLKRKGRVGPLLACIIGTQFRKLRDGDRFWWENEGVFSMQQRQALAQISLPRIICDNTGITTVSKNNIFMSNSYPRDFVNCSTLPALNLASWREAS

Sequence of human serum albumin (P02768 25-609): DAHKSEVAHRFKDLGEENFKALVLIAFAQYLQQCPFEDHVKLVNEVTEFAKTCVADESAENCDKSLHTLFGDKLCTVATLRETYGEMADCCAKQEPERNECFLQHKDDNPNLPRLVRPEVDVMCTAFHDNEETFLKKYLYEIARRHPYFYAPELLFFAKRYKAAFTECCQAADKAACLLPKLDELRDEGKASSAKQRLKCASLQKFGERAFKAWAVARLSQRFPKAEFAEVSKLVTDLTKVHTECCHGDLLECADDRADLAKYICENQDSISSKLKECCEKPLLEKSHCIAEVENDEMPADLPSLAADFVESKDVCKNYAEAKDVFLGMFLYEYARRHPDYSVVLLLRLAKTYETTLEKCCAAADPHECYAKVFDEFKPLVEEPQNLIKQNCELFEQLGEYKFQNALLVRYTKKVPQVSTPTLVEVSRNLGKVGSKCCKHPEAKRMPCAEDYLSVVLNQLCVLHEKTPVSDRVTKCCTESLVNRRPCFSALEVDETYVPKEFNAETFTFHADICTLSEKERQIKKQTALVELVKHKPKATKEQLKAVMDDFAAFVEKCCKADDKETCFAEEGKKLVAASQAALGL
T1 sequence (P49065 25-608): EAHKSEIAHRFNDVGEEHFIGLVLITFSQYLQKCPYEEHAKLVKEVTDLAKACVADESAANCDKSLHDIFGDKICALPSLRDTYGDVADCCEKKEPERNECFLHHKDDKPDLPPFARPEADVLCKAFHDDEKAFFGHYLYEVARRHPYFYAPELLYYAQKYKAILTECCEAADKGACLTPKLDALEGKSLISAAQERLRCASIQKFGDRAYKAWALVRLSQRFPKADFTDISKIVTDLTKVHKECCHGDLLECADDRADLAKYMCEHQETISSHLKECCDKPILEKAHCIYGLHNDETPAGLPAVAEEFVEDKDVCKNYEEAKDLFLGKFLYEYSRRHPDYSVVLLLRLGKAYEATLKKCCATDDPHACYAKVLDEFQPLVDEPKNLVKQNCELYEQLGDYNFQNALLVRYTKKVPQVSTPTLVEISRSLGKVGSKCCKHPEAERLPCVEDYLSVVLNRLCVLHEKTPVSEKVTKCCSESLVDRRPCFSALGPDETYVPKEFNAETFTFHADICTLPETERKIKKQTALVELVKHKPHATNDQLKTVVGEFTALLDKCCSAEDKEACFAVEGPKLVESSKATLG

O=C([O-])CN(CCN(CC(=O)[O-])CC(COP(=O)([O-])OC1CCC(c2ccccc2)(c2ccccc2)CC1)N(CC(=O)[O-])CC(=O)[O-])CC(=O)[O-].[Gd+3].[Na+].[Na+].[Na+] (stereo not drawn) [Vasovist, Gadofosveset trisodium]
increase of relaxivity slope enhancement ratio over absolute relaxivity enhancement ratio ([1]; 1.5 T): 25 fold | relaxivity enhancement ratio (activated relaxivity to inactivated relaxivity) ([1]; 1.5 T): 3.7 | relaxivity slope enhancement ratio (activated r1′ to inactivated r1′) ([1]; 1.5 T): 90 | magnetic field strength at which the relaxivity enhancement ratio peaks ([1]; from FIG. 3): ~0.5 T | DREMR image intensity, albumin samples ([2]; 4.5% rabbit serum albumin in PBS, ±70 mT ΔB): continued to demonstrate dependence on Vasovist concentration | standard T1 weighted spin-echo image intensity ([2]; albumin solution and PBS samples, 0-160 μM): demonstrated significant dependence on Vasovist concentration | binding to human serum albumin [3]: strong non-covalent binding | increase of relaxivity of the bound form ([3]; 30 Mhz): approximately an order of magnitude | increase of relaxivity of the bound form ([3]; 60 MHz): approximately four-fold | relaxivity ([4]; absence of albumin): 5.2 s⁻¹ mM⁻¹ | relaxivity ([4]; presence of albumin): 19 s⁻¹ mM⁻¹

O=C([O-])CN(CCN(CC(=O)[O-])CC(=O)NCCc1c[nH]c2ccc(O)cc12)CCN(CC(=O)[O-])CC(=O)NCCc1c[nH]c2ccc(O)cc12.[Gd+3] [bis-5-HT-DTPA(Gd)]
relaxivity change on conversion to oligomeric form [5]: enhanced relaxivity
